Measured values reported in US20140093550A1 (priority 2012, published 2014).

What was measured:
[1] = test system: Legionella pneumophila biofilm; assay type: cell-based, Legionella pneumophila strain Philadelphia 1 (ATCC 33152); conditions: 7 days; nanoparticles 1 microgram/milliliter, chlorine dioxide 0.1 ppm
[2] = test system: Legionella pneumophila biofilm; assay type: cell-based, Legionella pneumophila strain Philadelphia 1 (ATCC 33152); conditions: 5 days post-treatment after 7 days of treatment (Example 7 biofilms)

Question: `[O][Cl+][O-]` [chlorine dioxide biocide, chlorine dioxide] was tested. Which “biomass of biofilm after treatment (Example 7, FIG. 14)” value [1] did it give?
Answer: The value was “about 0.5 micrometers^3/micrometers^2”.

Question: What about the “fold increase in biomass on day 12” value [2] of the same compound?
Answer: The value was about 1.25 fold.
